Read-outs that look alike come from different tables or passages of the source. Values belong to the molecule of their own block, whether it stands above or below them.
Experiments:
[1] = system: UPEC strain CFT073; experiment: Antimicrobial susceptibility assay, UPEC grown in MOPS-glycerol; assay type: cell-based, Escherichia coli; details: for MIC: Escherichia coli; for MIC / MIC MOPS-glycerol: UPEC CFT073 grown in MOPS-glycerol, 24 h, ± standard error; for activity against UPEC, highest concentration without activity / fold increase in MIC (less potent) compared with 1: MOPS-glycerol
Source text: (§1) Unless otherwise noted, all reagents were obtained from commercial sources. BAP, 1, and N5-Pan analogs were synthesized according to previously reported procedures ([31], [53]). Urine was self-collected from adult males and females (not menstruating) between 24 and 57 years old (recruitment was open to donors 18–65 years old), who had not used anti-infectives or cranberry products for at least 7 days prior to collection. The collection protocol was approved by the Johns Hopkins University Institutional Review Boards under IRB study NA_00085130. Informed, written consent was obtained from all participants prior to collection. Urine was collected from at least 7 participants over 14 days, stored at 4°C upon collection, and then pooled, filter-sterilized, and frozen at −20°C. Urine Batch A included five male and three female donors with an average age of 33 years (range: 24–57). Urine Batch B included four male and five female donors with an average age of 26 years (range: 24–43). Samples from two donors (donations made at least 30 days apart) were included in both Batch A and Batch B. Urine Batch C included four male and three female donors with an average age of 27 years (range: 24–36). Urine Batch D included four male and three female donors with an average age of 27 years (range: 25–35). Solid urine agar plates were prepared by supplementing cooled 1.5% (wt/vol) agar with filter-sterilized urine in a 4:1 ratio. Liquid MOPS-glycerol was prepared by adding 10 × 3-(N-morpholino)propanesulfonic acid (MOPS) Buffer (Teknova) to water to a final 1× concentration, 1.32 mM K2HPO4, and 0.4% (vol/vol) glycerol and then filter-sterilizing. Unless otherwise noted, all media were supplemented with freshly prepared 20 µM FeSO4. OD600 analyses were performed on Mettler-Toledo UV5Bio UV/Visible spectrophotometer (Columbus, Ohio, USA). For antimicrobial studies, uropathogenic E. coli strain CFT073 (ATCC: BAA-2503) was provided by Kevin Schwartz from the lab of Rodney Welch. All manipulation of UPEC was conducted in a certified biosafety level 2 (BSL-2) laboratory while using BSL-2-associated safety procedures. Antimicrobial data were collected on a Biotek Epoch 2 microplate reader or a Biotek Synergy Neo 2 microplate reader. For metabolic stability studies, losartan potassium (PHR1602), used as an internal standard, was bought from Millipore Sigma (Burlington, MA). Methanol (A456-4) and acetonitrile (A955-4) were purchased from Fisher Chemical (Pittsburgh, PA). Water (9831-03) was purchased from JT Baker (Philipsburg, NJ). Dimethyl sulfoxide (DMSO)(154938-500mL) was purchased from Sigma Aldrich (St. Louis, MO). Mouse plasma (WT) was purchased from Innovative Research (Novi, MI). Mouse liver microsomes (M1000) were purchased from XenoTech LLC (Kansas City, KS).
(§2) All antimicrobial susceptibility assays were conducted as previously described using an aseptic technique with some modification ([7]). Briefly, 3–5 isolated colonies of CFT073 on LB agar or pooled urine agar were inoculated into 3 mL of liquid MOPS-glycerol medium or pooled urine, respectively, and grown overnight with shaking at 37°C. Saturated cultures were diluted 1:50 in fresh medium and grown to an OD600 of 0.4. These exponential phase cultures were then diluted 1:1,000 into fresh medium to yield the experimental inoculum, which was mixed 1:1 with medium containing 1 or N5-Pan analog at twice the desired final concentration in 96-well plates. The final concentration of bacteria in each well was approximately 10^5 CFU/mL in a final volume of 200 µL. The concentration ranges of compounds evaluated in MOPS-glycerol were: 1 (0–312.5 μM), 2 (0–100 μM), 3 (0–500 μM), 4–5 (0–2,000 μM), 6–7 (0–100 μM), and 8–12 (0-2,000 μM). Analogs 1, 6, and 7 were evaluated over a range of 0–4,000 μM in four batches of pooled human urine. The OD600 was monitored for 24 h (MOPS-glycerol) or 16 h (pooled urine) at 37°C with periodic shaking. […]

[2] = system: E. coli; set-up: method as in PMID 29332383; details: cited from earlier work
[3] = system: serum pantetheinases; details: cited from earlier work
[4] = system: UTI; set-up: method as in PMID 38376151; details: in vivo ascending UTI prophylaxis model; cited from earlier work
[5] = system: UPEC strain CFT073; experiment: Antimicrobial susceptibility assay, UPEC grown in pooled human urine; assay type: cell-based, Escherichia coli
Source text: as §1, §2

[6] = Phase I metabolic stability in mouse liver microsomes; assay type: in vitro ADME; details: for remaining at 1 h, 1 µM: mouse, liver microsomes, pH 7.4, 1 h, 1 µM compound, 0.2 mg/mL microsomes
Experimental: (§3) Stability studies were conducted in mouse liver microsomes, mouse liver tissue homogenate, and CD1 mouse plasma as previously described with minor modifications ([54][–][56]). Briefly, for Phase I mouse liver microsome stability, reactions were carried out with 200 mM potassium phosphate buffer, pH 7.4, with or without an NADPH-regenerating system (1.3 mM NADPH, 3.3 mM glucose 6-phosphate, 3.3 mM MgCl2, 0.4 U/mL glucose-6-phosphate dehydrogenase, and 50 µM sodium citrate). Reactions, in triplicate, were initiated by the addition of liver microsomes to the incubation mixture (compound final concentration was 1 µM; 0.2 mg/mL microsomes) and incubated at 37°C for the desired incubation time. For liver stability, the tissue homogenate was prepared by washing tissues with diluted 10-fold 0.1 M potassium phosphate buffer and homogenized using a probe sonicator over ice. To evaluate the stability of the drugs over time, each of the crude homogenates was aliquoted to 1 mL and then spiked with a final assay concentration of 10 µM of each drug, followed by incubation in an orbital shaker at 37°C for 1 h (in triplicate). For plasma stability, 1 mL of plasma was spiked with 10 µM of each drug, followed by incubation in an orbital shaker at 37°C for 1 h (in triplicate). Samples from each metabolism study were quenched with 3× volume of acetonitrile containing internal standard (losartan: 0.5 µM) at the desired incubation times. […] Samples were vortex-mixed for 30 s and centrifuged at 10,000 × g for 10 min at 4°C. Compound disappearance over time was monitored using a Dionex ultra-high-performance liquid chromatography system consisting of an analytical pump and an autosampler coupled with Q Exactive Focus orbitrap mass spectrometer (Thermo Fisher Scientific Inc., Waltham MA). […] The mobile phase used was composed of 0.1% formic acid in water and 0.1% formic acid in acetonitrile with gradient elution. The total run time for each analyte was 5 min.
(§4) The mass spectrometer was operated with a HESI ion source in positive ionization mode where compounds were identified in the full scan mode (from m/z 75.00–1125.00) and controlled by the Xcalibur software 4.0.27.13 (Thermo Scientific). Data were acquired using Xcalibur software. Drugs were identified in the full-scan mode (from m/z 75.00 to 1125.00) by comparing t = 0 samples with t = 30 or 60 min samples, and structures were proposed based on the accurate mass information. The percentage of compound remaining for pantothenamides 1, 6, and 7 was determined from the analyte/internal standard (IS) area ratios obtained at t = 30 or 60 min relative to the mean ratios obtained at t = 0 min and calculated using equation 1:
(§5) % Remaining=(Peak area of Analyte/Preak area of ISat t=30 or 60 min/MeanPeak area of Analyte/Peak area of ISat t=0 min)×100

[7] = Stability in mouse plasma; assay type: in vitro ADME
Experimental: as §3, §4, §5

[8] = Stability in mouse liver homogenate; assay type: in vitro ADME
Experimental: as §3, §4, §5

SMILES: CC(NC(=O)CCNC(=O)[C@H](O)C(C)(C)CO)c1cccnc1 (some centres unmarked) [compound 11]
- MIC [1]: > 2000 µM

SMILES: CCCCCCCN(C)C(=O)CCNC(=O)[C@H](O)C(C)(C)CO [compound 5, N-methyl N7-Pan]
- activity against E. coli [2]: inactive
- MIC [1]: > 2000 µM
- activity against UPEC, highest concentration without activity [1]: similarly inactive
- pantetheinase resistance [3]: pantetheinase-resistant

SMILES: CCCCOP(=O)(O)C(C)=O [BAP, butylacetylphosphonate]
- protection of mice against UTI [4]: partially protects

SMILES: CC(C)(CO)[C@@H](O)C(=O)NCCC(=O)NCc1ccccn1 [compound 8]
- MIC [1]: 68 µM
- fold increase in MIC (less potent) compared with 1 [1]: ~ 28 fold
- MIC MOPS-glycerol [1]: 68 ± 32 µM

Now from value to molecule, other results behind:

- MIC [1]: > 2000 µM
SMILES: CCCCCN(C)C(=O)CCNC(=O)[C@H](O)C(C)(C)CO [compound 4, N-methyl N5-Pan]
- activity against UPEC, highest concentration without activity [1]: > 2 mM

- MIC [1]: > 2000 µM
SMILES: CC(C)(CO)[C@@H](O)C(=O)NCCC(=O)NCc1ccncc1 [compound 10]

- MIC ([5]; Escherichia coli, UPEC CFT073, all urine batches A-D, read-out: MIC across four batches of pooled urine): ≥ 4000 µM
- MIC ([5]; UPEC CFT073, urine batch A, read-out: MIC in pooled human urine, urine batch A): > 4000 µM
- MIC ([5]; UPEC CFT073, urine batch B, read-out: MIC in pooled human urine, urine batch B): 4000 µM
- remaining at 1 h, 1 µM ([6]; with NADPH, read-out: % remaining in mouse liver microsomes, presence of NADPH): 87%
- remaining at 1 h, 1 µM ([6]; without NADPH, read-out: % remaining in mouse liver microsomes, absence of NADPH): 87%
- stability in mouse liver microsomes ([6]; n = 3): good stability
- remaining at 1 h, 10 µM ([7]; CD1, mouse, plasma, 1 h, 10 µM compound, 37°C): 93%
- stability in mouse plasma ([7]; n = 3): good stability
- MIC [1]: 12.5 µM
- MIC MOPS-glycerol [1]: 12.5 ± 0.00 µM
- % remaining in mouse liver homogenate ([8]; 1 h, 10% wt/vol homogenate, 10 µM compound, 37°C): no degradation
- stability in mouse liver homogenate ([8]; n = 3): good stability
SMILES: CCCCCC(=O)NCCNC(=O)[C@H](O)C(C)(C)CO [compound 7]
- stability in the presence of serum pantetheinases [3]: stable

- MIC [1]: 26 µM
- fold increase in MIC (less potent) compared with 1 [1]: ~ 10 fold
- MIC MOPS-glycerol [1]: 26 ± 5 µM
SMILES: CCCCCCCNC(=O)CCNC(=O)[C@H](O)C(C)(C)CO [compound 3]

- MIC [1]: > 2000 µM
SMILES: CN(Cc1cccnc1)C(=O)CCNC(=O)[C@H](O)C(C)(C)CO [compound 12]

- MIC [1]: 4 µM
- MIC MOPS-glycerol [1]: 4 ± 1 µM
SMILES: CCCCNC(=O)CCNC(=O)[C@H](O)C(C)(C)CO [compound 2]

- MIC [1]: 2000 µM
SMILES: CC(C)(CO)[C@@H](O)C(=O)NCCC(=O)NCc1cccnc1 [compound 9]

Reference: PMC12323621, “Exploring the antimicrobial activity of pantothenamides against uropathogenic Escherichia coli” (Microbiology Spectrum, 2025)
